Counter-ions that a name gives are not always drawn.
Experiments:
[1] = system: retinal pigment epithelium (RPE) layer of the eye; settings: cited from earlier work
BACE1 = BACE1 (Homo sapiens, UniProt P56817); type: biochemical
[2] = Human hepatocyte clearance; type: in vitro ADME; settings: hepatocytes
hERG = hERG (Homo sapiens, UniProt Q12809); assay: hERG patch clamp assay in hERG-expressing CHO cells; type: cell-based; settings: pH 7.35
[3] = system: major CYP-P450s (1A2, 2C9, 2D6, 3A4, 2C8, 2C19); assay: Multipoint cocktail DDI IC50 assay, major CYP-P450s; type: in vitro ADME; settings: human, pooled human liver microsomes (HL-MIX-102), pH 7.4
[4] = cited from earlier work

BACE1, sequence (P56817 46-457 limits assumed): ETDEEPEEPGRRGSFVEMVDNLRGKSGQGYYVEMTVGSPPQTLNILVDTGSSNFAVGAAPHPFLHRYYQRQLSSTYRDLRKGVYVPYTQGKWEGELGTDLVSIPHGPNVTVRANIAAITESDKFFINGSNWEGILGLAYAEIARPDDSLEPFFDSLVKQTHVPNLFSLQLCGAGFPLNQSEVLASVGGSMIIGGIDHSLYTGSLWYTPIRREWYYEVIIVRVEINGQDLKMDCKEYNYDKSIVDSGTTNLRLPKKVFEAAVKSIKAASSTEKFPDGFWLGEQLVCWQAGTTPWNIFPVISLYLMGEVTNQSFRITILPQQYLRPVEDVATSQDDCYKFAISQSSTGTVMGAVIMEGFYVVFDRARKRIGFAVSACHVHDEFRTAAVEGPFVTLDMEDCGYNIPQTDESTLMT
hERG, sequence (Q12809 whole entry): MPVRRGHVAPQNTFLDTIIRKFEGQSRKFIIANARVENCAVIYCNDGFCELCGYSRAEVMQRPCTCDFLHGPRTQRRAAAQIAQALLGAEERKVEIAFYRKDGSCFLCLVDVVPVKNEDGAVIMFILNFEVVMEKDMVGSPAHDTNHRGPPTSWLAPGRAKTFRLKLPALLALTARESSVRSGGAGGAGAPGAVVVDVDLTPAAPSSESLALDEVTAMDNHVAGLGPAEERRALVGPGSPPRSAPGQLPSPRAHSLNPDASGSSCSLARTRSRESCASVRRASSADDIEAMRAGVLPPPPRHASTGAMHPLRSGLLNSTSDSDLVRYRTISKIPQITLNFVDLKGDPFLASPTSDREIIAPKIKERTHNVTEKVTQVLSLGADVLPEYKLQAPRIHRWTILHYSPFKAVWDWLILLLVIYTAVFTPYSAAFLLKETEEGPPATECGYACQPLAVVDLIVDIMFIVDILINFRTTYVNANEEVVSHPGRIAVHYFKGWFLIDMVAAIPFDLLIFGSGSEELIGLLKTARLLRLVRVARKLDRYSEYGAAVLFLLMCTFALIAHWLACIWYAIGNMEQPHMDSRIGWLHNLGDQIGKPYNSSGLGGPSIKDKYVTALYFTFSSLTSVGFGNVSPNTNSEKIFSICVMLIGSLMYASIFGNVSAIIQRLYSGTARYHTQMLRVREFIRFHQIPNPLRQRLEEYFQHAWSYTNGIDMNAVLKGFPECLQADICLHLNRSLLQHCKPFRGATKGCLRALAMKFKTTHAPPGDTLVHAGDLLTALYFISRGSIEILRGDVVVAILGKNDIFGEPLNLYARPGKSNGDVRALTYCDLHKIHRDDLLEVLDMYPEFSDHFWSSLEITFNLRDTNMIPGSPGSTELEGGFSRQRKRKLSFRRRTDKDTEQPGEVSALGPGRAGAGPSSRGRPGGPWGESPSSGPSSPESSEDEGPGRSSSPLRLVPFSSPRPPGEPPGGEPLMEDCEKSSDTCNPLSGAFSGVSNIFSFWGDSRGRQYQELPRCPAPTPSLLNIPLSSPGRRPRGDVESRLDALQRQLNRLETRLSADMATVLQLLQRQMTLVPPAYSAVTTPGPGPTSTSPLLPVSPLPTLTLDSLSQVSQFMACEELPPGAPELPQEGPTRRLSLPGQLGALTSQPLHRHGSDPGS

SMILES: C[C@@]1(c2cc(-c3cncnc3)c(F)cc2F)CCSC(N)=N1 [LY2811376]
- finding in rat safety studies [1]: accumulation of autofluorescent material and degeneration of the retinal pigment epithelium (RPE) layer of the eye

SMILES: Cn1cc([C@H]2C[C@H]3CSC(N)=N[C@@]3(c3ccc(F)cc3F)CO2)cn1 [Compound 5, (4aR,6R,8aS)-8a-(2,4-Difluorophenyl)-6-(1-methyl-1H-pyrazol-4-yl)-4,4a,5,6,8,8a-hexahydropyrano[3,4-d][1,3]thiazin-2-amine]
- improvement of BACE1 potency over compound 2 (BACE1): approximately 10 fold
- hepatocyte CLint [2]: < 6 µL/min/1e6 cells

SMILES: Cc1cc([C@H]2C[C@H]3[C@@H](CF)SC(N)=N[C@@]3(c3ccc(F)cc3F)CO2)on1 [Compound 13, (4S,4aR,6R,8aS)-8a-(2,4-Difluorophenyl)-4-(fluoromethyl)-6-(3-methyl-1,2-oxazol-5-yl)-4,4a,5,6,8,8a-hexahydropyrano[3,4-d][1,3]thiazin-2-amine]
- improvement of hERG margin compared to isoxazole 10 (hERG): greater than 7 fold
- IC50 [3]: > 30 µM

SMILES: Cc1coc([C@H]2C[C@H]3CSC(N)=N[C@@]3(c3ccc(F)cc3F)CO2)n1 [Compound 3, (4aR,6R,8aS)-8a-(2,4-Difluorophenyl)-6-(4-methyloxazol-2-yl)-4,4a,5,6,8,8a-hexahydropyrano[3,4-d][1,3]thiazin-2-amine]
- improvement of BACE1 potency over compound 2 (BACE1): approximately 10 fold

SMILES: CC1(C#Cc2cnc3c(c2)[C@]2(COC(N)=N2)c2cc(-c4cccnc4F)ccc2O3)COC1 [AMG-8718]
- finding in rat safety studies [1]: accumulation of autofluorescent material and degeneration of the retinal pigment epithelium (RPE) layer of the eye

SMILES: NC1=N[C@@]2(c3ccc(F)cc3F)CO[C@@H](c3ncco3)C[C@H]2CS1 [Compound 2, (4aR,6R,8aS)-8a-(2,4-Difluorophenyl)-6-(oxazol-2-yl)-4,4a,5,6,8,8a-hexahydropyrano[3,4-d][1,3]thiazin-2-amine]
- improvement of BACE1 potency over 1 (BACE1): ~2 fold
- LipE (BACE1; LipE = BACE1 CFA pIC50 – log D): 5.2

SMILES: Cc1coc([C@H]2C[C@H]3[C@@H](CF)SC(N)=N[C@@]3(c3ccc(F)cc3F)CO2)n1 [Compound 12, (4S,4aR,6R,8aS)-8a-(2,4-Difluorophenyl)-4-(fluoromethyl)-6-(4-methyloxazol-2-yl)-4,4a,5,6,8,8a-hexahydropyrano[3,4-d][1,3]thiazin-2-amine]
- IC50 [3]: > 30 µM

SMILES: Cc1coc([C@H]2C[C@H]3[C@@H](C)SC(N)=N[C@@]3(c3ccc(F)cc3F)CO2)n1 [Compound 9, (4R,4aR,6R,8aS)-8a-(2,4-Difluorophenyl)-4-methyl-6-(4-methyloxazol-2-yl)-4,4a,5,6,8,8a-hexahydropyrano[3,4-d][1,3]thiazin-2-amine]
- IC50 [3]: > 30 µM

SMILES: Cn1cc([C@H]2C[C@H]3[C@@H](CF)SC(N)=N[C@@]3(c3ccc(F)cc3F)CO2)cn1 [Compound 14, (4S,4aR,6R,8aS)-8a-(2,4-Difluorophenyl)-4-(fluoromethyl)-6-(1-methyl-1H-pyrazol-4-yl)-4,4a,5,6,8,8a-hexahydropyrano[3,4-d][1,3]thiazin-2-amine, Hydrochloride Salt]
- IC50 [3]: > 30 µM

SMILES: Cc1cc([C@H]2C[C@H]3CSC(N)=N[C@@]3(c3ccc(F)cc3F)CO2)on1 [Compound 4, (4aR, 6R, 8aS)-8a-(2,4-Difluorophenyl)-6-(3-methyl-1,2-oxazo1-5-yl)-4,4-a,5,6,8,8a-hexahydropyrano [3,4-][1,3]thiazin-2-amine]
- improvement of BACE1 potency over compound 2 (BACE1): approximately 10 fold

SMILES: NC1=N[C@@]2(c3cc(NC(=O)c4ccc(F)cn4)ccc3F)COC[C@H]2CS1 [LY2886721]
- finding that terminated phase II study [4]: abnormal liver biochemical tests

From article PMC4415909 (Journal of Medicinal Chemistry, 2015)
